Article PMC10541411 (Nature Communications, 2023)

Key:
53BP1^TT = molecular target: T1, 53BP1^TT (Homo sapiens, UniProt Q12888); assay: Sedimentation velocity analytical ultracentrifugation (AUC); details: 53BP1TT 20 μM, UNC3474 10-200 μM
T1 construct: The tandem Tudor domain of 53BP1 (53BP1^TT, residues 1481–1603) was purified as previously described; made in house; host or cells: E. coli (only for the SAXS sample)
Experimental: The AUC experiments were performed at 20 °C in 20 mM sodium phosphate, pH 7.5, with 50 mM NaCl. 53BP1^TT was at a concentration of 20 μM. Measurements were recorded on an Optima analytical ultracentrifuge (Beckman Coulter) with an An-50 Ti analytical 8-place rotor using absorbance detection at 280 nm. Sample-filled AUC cells assembled with 12-mm charcoal-filled Epon centerpieces and quartz windows were subjected to 3 h of equilibration at 20 °C under vacuum prior to initiating the experiments at 50,000 rpm (corresponding to 182,000 × g at the cell center and 201,600 × g at the cell bottom) with continuous data acquisition for 20 h (200 scans) at 20 °C. The AUC data were analyzed with the c(s) model in SEDFIT[66] using a partial specific volume of 0.7335 mL/g.

[1] = tested on: 53BP1^FFR-PN IRIF in U2OS cells; assay: 53BP1FFR ionizing radiation-induced foci (IRIF) formation, immunofluorescence, PN mutant; type: cell-based, Homo Sapiens; details: 1 Gy X-ray, different concentrations of UNC3474
Excerpt: The foci-forming region (FFR; residues 1220–1711) of wild-type 53BP1 and mutants E1549P/D1550N (53BP1^FFR-PN) and E1549C/E1567C (53BP1^FFR-CC) were inserted into the retroviral vector POZ. The primers used to introduce the E1549P/D1550N mutations are: […] (forward) and […] (reverse). The primers used to introduce the E1549C/E1567C mutations are: […] (forward) and […] (reverse). The 53BP1^FFR constructs were stably expressed at a moderate level in U2OS cells. To probe the effect of UNC3474 on 53BP1^FFR IRIF formation, U2OS cells were grown on glass coverslips, pre-incubated for 1 h with various concentrations of UNC3474 and exposed to 1 Gy of X-ray radiation. After 1 h, the cells were fixed in 4% formaldehyde in PBS for 15 min at room temperature and blocked and permeabilized for 1 h in PBS containing 0.3% Triton X-100, 1% BSA, 10% fetal bovine serum. […]
Cell samples were subjected to z-stack scanning with a total depth of 5 μm to comprehensively capture all 53BP1^FFR and γH2A.X IRIF within the cell nuclei, which were fluorescently labeled with DAPI. […] To assess the quantification of 53BP1^FFR and γH2A.X foci per nuclei, a customized CellProfiler (version 3.0)[68] pipeline was employed. […]

T1 sequence (Q12888 1481-1603): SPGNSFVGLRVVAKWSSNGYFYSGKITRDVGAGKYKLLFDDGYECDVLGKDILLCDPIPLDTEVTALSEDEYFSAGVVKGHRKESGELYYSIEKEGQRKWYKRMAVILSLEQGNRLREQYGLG

CC(C)c1cccc(C(=O)NCCCNC(C)(C)C)c1 [UNC3474]
change in sedimentation coefficient of 53BP1TT (53BP1^TT): consistent with the dimerization of 53BP1^TT | 53BP1FFR-PN IRIF [1]: no significant change
